As usually defined, the melting point is the temperature, or range, at which the solid turns liquid. By IC50 is commonly meant the midpoint of a concentration-inhibition curve.

Where a name gives a salt, the structure may show the parent alone.

Among the data in patent publication US6407130B1, “Carboxamide-substituted benzimidazoles having tryptase-inhibiting activity” (Boehringer Ingelheim Pharma KG, priority 1999, dated 2002) are melting point and IC50 values, retold here.

Data set [1] has as its target T1, rh beta tryptase (Homo sapiens, UniProt Q15661).
T1 construct: purchased Promega
As to the kind of experiment: tryptase inhibition test (cleavage of N-p-tosyl-Gly-Pro-Lys-para-nitroaniline, p-nitroaniline measured at 405 nm). It is filed as biochemical. The following applies: Tris HCl buffer pH 7.4 with calcium and heparin; substrate 0.6 mM; 5 minutes' pre-incubation, 5 minutes incubation at 37° C. Put shortly: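 Run in 100 mM Tris HCl, pH 7.4, with 5 mM calcium and […] heparin, enzyme at 0.91 U/ml and 0.6 mM substrate. Compounds pre-incubated 5 min, then substrate added; p-nitroaniline read after 5 min at 37° C. Screening at 10 μM gives % inhibition; IC50 determined where inhibition exceeds 70%.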

T1 sequence (Q15661 31-275): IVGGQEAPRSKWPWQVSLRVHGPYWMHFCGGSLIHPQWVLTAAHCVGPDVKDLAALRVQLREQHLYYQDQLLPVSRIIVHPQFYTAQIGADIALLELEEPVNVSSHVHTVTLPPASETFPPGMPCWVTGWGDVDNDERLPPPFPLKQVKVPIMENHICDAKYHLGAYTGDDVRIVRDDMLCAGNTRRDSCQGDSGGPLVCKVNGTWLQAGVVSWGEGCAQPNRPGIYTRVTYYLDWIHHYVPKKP

Molecule `CC(C)CN(C(=O)CCc1ccc(C(=N)N)cc1)c1ccc2c(c1)nc(CCc1ccc(C(=N)N)cc1)n2C` (as salt: hydrochloride) [Example 5, N-{2-[2-(4-Amidinophenyl)-ethyl]-1-methyl-benzimidazol-5-yl}-N-isobutyl-[3-(4-amidinophenyl)-propionamide]-dihydrochloride] came in with a melting point greater than 220 °C. For `Cn1c(CCc2ccc(C(=N)N)cc2)nc2cc(NC(=O)C(N)Cc3ccc(C(=N)N)cc3)ccc21` (stereo not drawn) (as salt: hydrochloride) [Example 4, N-{2-[2-(4-Amidinophenyl)-ethyl]-1-methyl-benzimidazol-5-yl}-[2-amino-3-(p-amidinophenyl)-propionic Acid Amide]-trihydrochloride], the melting point is greater than 260 °C. Consider `CN(CC(=O)N(Cc1cccc2ccccc12)c1ccc2c(c1)nc(CCc1ccc(C(=N)N)cc1)n2C)Cc1ccc(N2CCCC2)cc1` [Example 83, N-{2-[2-(4-Amidinophenyl)-ethyl]-1-methyl-benzimidazol-5-yl}-N-( - naphthylmethyl)-[2-(N-(4-pyrrolidin-1-ylbenzyl)-N-methylamino)-acetamide]-dihydrochloride], for which, in data set [1], the IC50 stood at 7.6 nM. On to `CN(C(=O)CCc1ccc(C(=N)N)cc1)c1ccc2c(c1)nc(CCc1ccc(C(=N)N)cc1)n2C` [Example 1, N-{2-[2-(4-Amidinophenyl)-ethyl]-1-methyl-benzimidazol-5-yl}-N-methyl-[3-(4-amidinophenyl)-propionamide]dihydrochloride], for which the IC50 in data set [1] was determined as 64 nM. On the same count and under the same terms, with `CN(C)CCNCC(=O)N(Cc1cccc2ccccc12)c1ccc2c(c1)nc(CCc1ccc(C(=N)N)cc1)n2C` [Example 76] the figure was 22 nM; with `Cc1ccc(CNCC(=O)N(Cc2cccc3ccccc23)c2ccc3c(c2)nc(CCc2ccc(C(=N)N)cc2)n3C)cc1` [Example 60, N-{2-[2-(4-Amidinophenyl)-ethyl]-1-methyl-benzimidazol-5-yl}-N-(- naphthylmethyl)-[2-(4-methylbenzylamino)-acetamide]-dihydrochloride], 25 nM.
